# Legend:
# Plasmodium falciparum [1] = experiment: Antiplasmodial activity against Plasmodium falciparum D6 infected in human RBC assessed as parasite growth inhibition measured as LDH activity after 72 hrs by plate reader analysis; type: functional, organism-based
# [2] = Retention time of the compound by HPLC analysis; type: physicochemical
# Plasmodium falciparum [3] = experiment: Antiplasmodial activity against Plasmodium falciparum W2 infected in human RBC assessed as parasite growth inhibition measured as LDH activity after 72 hrs by plate reader analysis; type: functional, organism-based
# LLC-PK1 = experiment: Cytotoxicity against pig LLC-PK1 cells assessed as cell growth inhibition after 48 hrs by neutral red assay; type: cell-based; conditions: Sus scrofa, LLC-PK1, 48 h
# [4] = Selectivity index, ratio of IC50 for pig LLC-PK1 cells to IC50 for Plasmodium falciparum W2
# SK-MEL = experiment: Cytotoxicity against human SK-MEL cells assessed as cell growth inhibition after 48 hrs by neutral red assay; type: cell-based
# [5] = Selectivity index, ratio of IC50 for African green monkey VERO cells to IC50 for Plasmodium falciparum W2
# KB = experiment: Cytotoxicity against human KB cells assessed as cell growth inhibition after 48 hrs by neutral red assay; type: cell-based
# BT-549 = experiment: Cytotoxicity against human BT549 cells assessed as cell growth inhibition after 48 hrs by neutral red assay; type: cell-based; conditions: BT-549, 48 h
# SK-OV-3 = experiment: Cytotoxicity against human SKOV3 cells assessed as cell growth inhibition after 48 hrs by neutral red assay; type: cell-based; conditions: SK-OV-3, 48 h
# Vero = experiment: Cytotoxicity against African green monkey Vero cells assessed as cell growth inhibition after 48 hrs by neutral red assay; type: cell-based; conditions: Chlorocebus sabaeus
# [6] = Selectivity index, ratio of IC50 for African green monkey VERO cells to IC50 for Plasmodium falciparum D6
# [7] = Selectivity index, ratio of IC50 for pig LLC-PK1 cells to IC50 for Plasmodium falciparum D6
# [8] = system: Mycobacterium tuberculosis; experiment: Antitubercular activity against Mycobacterium tuberculosis H37Rv assessed as […] inhibition after 7 days by broth microdilution assay; type: functional; conditions: 168 h
# [9] = Plasmodium falciparum, D6, 72 h, read-out: IC50
# [10] = Plasmodium falciparum, D6, 72 h, read-out: pIC50 (converted)
# [11] = Plasmodium falciparum, W2, 72 h, read-out: IC50
# [12] = Plasmodium falciparum, W2, 72 h, read-out: pIC50 (converted)
structure (smiles),measurement,setting,value
Nc1nccc(-c2cn(S(=O)(=O)c3ccc(C(F)(F)F)cc3)c3ccccc23)n1,IC50,Plasmodium falciparum [1],Not Active
same,Retention_time,[2],9.15 min
same,IC50,Plasmodium falciparum [3],Not Active
Nc1nccc(-c2cn(S(=O)(=O)c3ccc(C(F)(F)F)cc3)c3ccc(Br)cc23)n1,IC50,Plasmodium falciparum [1]; [9],8.92 µM
same,IC50,Plasmodium falciparum [1]; [10],8.91 µM
same,Retention_time,[2],9.54 min
same,IC50,LLC-PK1,> 50 µM
same,Ratio IC50,[4],>5.3
same,IC50,SK-MEL,> 50 µM
same,Ratio IC50,[5],>5.3
same,IC50,KB,> 50 µM
same,IC50,BT-549,> 50 µM
same,IC50,SK-OV-3,> 50 µM
same,IC50,Vero,> 50 µM
same,Ratio IC50,[6],>5.6
same,Ratio IC50,[7],>5.6
same,IC50,Plasmodium falciparum [3]; [11],9.41 µM
same,IC50,Plasmodium falciparum [3]; [12],9.42 µM
Nc1nccc(-c2cn(S(=O)(=O)c3cc(C(F)(F)F)cc(C(F)(F)F)c3)c3ccccc23)n1,IC50,Plasmodium falciparum [1],Not Active
same,Retention_time,[2],7.87 min
same,IC50,Plasmodium falciparum [3],Not Active
Nc1nccc(-c2cn(S(=O)(=O)c3cc(C(F)(F)F)cc(C(F)(F)F)c3)c3ccc(Br)cc23)n1,IC50,Plasmodium falciparum [1],Not Active
same,Retention_time,[2],10.48 min
same,IC50,Plasmodium falciparum [3],Not Active
Nc1nccc(-c2cn(S(=O)(=O)c3ccc4c(c3)OCCO4)c3ccccc23)n1,IC50,Plasmodium falciparum [1],Not Active
same,Retention_time,[2],8.02 min
same,IC50,Plasmodium falciparum [3],Not Active
Nc1nccc(-c2cn(S(=O)(=O)c3ccc4c(c3)OCCO4)c3ccc(Br)cc23)n1,IC50,Plasmodium falciparum [1],Not Active
same,Retention_time,[2],8 min
same,IC50,Plasmodium falciparum [3],Not Active
Nc1nccc(-c2cn(S(=O)(=O)c3ccc(OC(F)(F)F)cc3)c3ccc(Br)cc23)n1,IC50,Plasmodium falciparum [1],Not Active
same,Retention_time,[2],9.54 min
same,IC50,Plasmodium falciparum [3],Not Active
same,MIC90,[8],62.5 µM
Nc1nccc(-c2cn(S(=O)(=O)c3ccc(F)cc3F)c3ccccc23)n1,IC50,Plasmodium falciparum [1],Not Active
same,Retention_time,[2],7.32 min
same,IC50,Plasmodium falciparum [3],Not Active
Nc1nccc(-c2cn(S(=O)(=O)c3ccc4ccccc4c3)c3ccccc23)n1,IC50,Plasmodium falciparum [1],Not Active
same,Retention_time,[2],8.31 min
same,IC50,Plasmodium falciparum [3],Not Active
COc1ccc(S(=O)(=O)n2cc(-c3ccnc(N)n3)c3ccccc32)cc1OC,IC50,Plasmodium falciparum [1],Not Active
same,Retention_time,[2],6.92 min
same,IC50,Plasmodium falciparum [3],Not Active
CC(=O)Nc1ccc(S(=O)(=O)n2cc(-c3ccnc(N)n3)c3cc(Br)ccc32)cc1,IC50,Plasmodium falciparum [1]; [9],9.33 µM
same,IC50,Plasmodium falciparum [1]; [10],9.33 µM
same,Retention_time,[2],6.95 min
same,IC50,LLC-PK1,> 51 µM
same,Ratio IC50,[4],>5.6
same,IC50,SK-MEL,> 51 µM
same,Ratio IC50,[5],>5.6
same,IC50,KB,> 51 µM
same,IC50,BT-549,> 51 µM
same,IC50,SK-OV-3,> 51 µM
same,IC50,Vero,> 51 µM
same,Ratio IC50,[6],>5.5
same,Ratio IC50,[7],>5.5
same,IC50,Plasmodium falciparum [3]; [11],9.14 µM
same,IC50,Plasmodium falciparum [3]; [12],9.14 µM
Nc1nccc(-c2cn(S(=O)(=O)c3ccc(Cl)cc3Cl)c3ccccc23)n1,IC50,Plasmodium falciparum [1],Not Active
same,Retention_time,[2],9.08 min
same,IC50,Plasmodium falciparum [3],Not Active
Nc1nccc(-c2cn(S(=O)(=O)c3ccc(Br)cc3)c3ccccc23)n1,IC50,Plasmodium falciparum [1],Not Active
same,Retention_time,[2],8.45 min
same,IC50,Plasmodium falciparum [3],Not Active
COc1ccc(Br)cc1S(=O)(=O)n1cc(-c2ccnc(N)n2)c2ccccc21,IC50,Plasmodium falciparum [1],Not Active
same,Retention_time,[2],8.38 min
same,IC50,Plasmodium falciparum [3],Not Active
Nc1nccc(-c2cn(S(=O)(=O)c3ccc(I)cc3)c3ccccc23)n1,IC50,Plasmodium falciparum [1],Not Active
same,Retention_time,[2],8.8 min
same,IC50,Plasmodium falciparum [3],Not Active
Cc1ccsc1C(=O)n1cc(-c2ccnc(N)n2)c2ccccc21,Retention_time,[2],8.48 min
same,MIC90,[8],192 µM
O=C1NC(c2c[nH]c3ccc(I)cc23)Nc2ccccc21 (stereo unspecified),MIC90,[8],5.2 µM
Nc1nccc(-c2c[nH]c3ccccc23)n1,Ratio IC50,[4],>24.1
same,Ratio IC50,[5],>26.8
same,Ratio IC50,[6],>12.3
same,Ratio IC50,[7],>11.1
same,MIC90,[8],305 µM
COc1cccc2c1C(=O)c1c(O)c3c(c(O)c1C2=O)C[C@@](O)(C(=O)CO)C[C@@H]3O[C@H]1C[C@H](N)[C@H](O)[C@H](C)O1 [DOXORUBICIN],IC50,BT-549,1.6 µM
same,IC50,Vero,> 9 µM
Nc1nccc(-c2c[nH]c3ccc(Br)cc23)n1 [MERIDIANIN C],Ratio IC50,[4],>7.4
same,Ratio IC50,[5],>7.4
same,Ratio IC50,[6],>6
same,Ratio IC50,[7],>6
same,MIC90,[8],111 µM
CO[C@H]1/C=C/O[C@@]2(C)Oc3c(C)c(O)c4c(O)c(c(/C=N/N5CCN(C)CC5)c(O)c4c3C2=O)NC(=O)/C(C)=C\C=C\[C@H](C)[C@H](O)[C@@H](C)[C@@H](O)[C@@H](C)[C@H](OC(C)=O)[C@@H]1C [RIFAMPIN],MIC90,[8],0.07 µM
